Data reported in patent publication US20190031613A1, “COMPOUNDS AND METHODS FOR THEIR USE IN THE TREATMENT OF MALARIA” (University of South Florida, priority 2016, published 2019).
In brackets after ≈: the same amount, converted by molar mass.

What was measured:
[1] = system: multidrug resistant malarial strain W2 (pyrimethamine and chloroquine resistant); assay: in vitro antimalarial activity against strain W2; format: cell-based; settings: strains W2 and TM90-C2B, strain not specified
From the text: (§1) FIG. 2a depicts the synthesis of 4(1H)-quinolones 1 via Conrad-Limpach reaction^24 and conversion to first set of prodrugs (2, 3 and 4) via O-acylation.
(§2) FIG. 4a depicts the synthesis of 4(1H)-quinolones 1 into amino AOCOM ether prodrugs 6 via O-alkylation and subsequent deprotection.

physchem = settings: pH 7.4, aqueous buffer
[2] = system: multidrug resistant malarial strain TM90-C2B (mefloquine, chloroquine, atovaquone, pyrimethamine resistant); assay: in vitro antimalarial activity against strain TM90-C2B; format: cell-based; settings: internal controls of the in vitro assay
From the text: as §1, §2

P. berghei-GFP parasites = assay: in vivo efficacy, modified Thompson test; design: species or system mice; settings: three daily doses days 3-5 PI, 0.5% aqueous HEC
Method: Prodrug 6d was orally tested for in vivo efficacy at four doses (0.3 mg/kg, 1.0 mg/kg, 3.0 mg/kg, and 10 mg/kg) in 0.5% aqueous HEC solution.

[3] = aqueous solubility at pH 2.5, UV-based assay; format: physicochemical; settings: aqueous solution at pH 2.5, pH 2.5, aqueous buffer; read-out: aqueous solubility at acidic pH
From the text: Analogous to known AOCOM ether prodrugs, AOCOM iodides were used to prepare the desired prodrugs.^39 Thus, the synthesis route to the prodrugs commences with conversion of Boc-protected amino alcohols into corresponding Boc-protected aminoalkyloxycarbonyloxymethyl (amino AOCOM) iodides (FIG. 4a). Reaction of 4-quinolinols 1c′ and with the 1d′ with the Boc-protected amino AOCOM iodides, in presence of caesium carbonate, and subsequent deprotection leads to water-soluble HCl salts 6a-d (FIG. 4b). […] The assessment of the aqueous solubility at pH 7.4 was challenging due to the limited stability of the prodrug moiety at neutral pH and was not performed. […] In addition, solid material was rapidly dissolved in 0.5% aqueous HEC solution and visually inspected after 60 seconds for material dissolution.

## CCOC(=O)Oc1c(-c2ccccc2C)c(C)nc2cc(OC)c(Cl)cc12 [compound 4, 6-Chloro-7-methoxy-2-methyl-3-(o-tolyl)-4-((ethoxycarbonyl)oxy)quinoline]
[1]
  in vitro antimalarial activity / EC50 values relative to 1c: comparable to the EC50 values of 1c
physchem
  solubility: 1.2 µM (≈ 0.463 µg/mL)

## C[C@H]1[C@@H](O)O[C@@H]2O[C@@]3(C)CC[C@H]4[C@H](C)CC[C@@H]1[C@@]24OO3 [DHA, dihydroartemisinin, reference compound]
[2]
  EC50: 0.005 µM

## CNCCCOC(=O)OCOc1c(-c2ccccc2C)c(C)nc2cc(OC)c(Cl)cc12.Cl [6b, 6-Chloro-7-methoxy-2-methyl-3-(o-tolyl)-4-(((3-(methylammonio)propyloxycarbonyl)oxy)methoxy)quinoline, chloride salt]
P. berghei-GFP parasites; 10 mg/kg PO
  Suppression [%] day 6 PI: 52%
P. berghei-GFP parasites; 10 mg/kg PO, untreated 13
  Day of death (avg): 13
P. berghei-GFP parasites; 50 mg/kg PO
  Day of death (avg): 13
  Suppression [%] day 6 PI: 72%
[3]
  solubility: > 100 µM

## O=C1C(O)=C([C@H]2CC[C@H](c3ccc(Cl)cc3)CC2)C(=O)c2ccccc21 [ATO, atovaquone, reference compound]
[2]
  EC50: 18.4 µM
